Measured values reported in publication PMC11739978, “Next-Generation Carbazole-Linked 1,2,4-Triazole-Thione Derivatives: Strategic Design, Synthesis, Molecular Docking, and Evaluation of Antidiabetic Potential” (ACS Omega, 2024).
Values joined by “and” are separate entries in the source; they are usually repeats but may differ in a detail not shown here. Identical values can stand only once.

What was measured:
[1] = MTS cytotoxicity assay on LX-2 normal hepatic cells; conditions: human, LX-2 hepatic stellate cells
LX-2 cells = assay: as above; conditions: LX-2, 100 μM
[2] = test system: STZ-induced diabetic mice; assay: In vivo hypoglycemic effect in mice with STZ-induced diabetes; conditions: group III STZ-diabetic mice, fasting
Description: The Carbazole-triazole derivatives were tested in a laboratory setting to determine their ability to inhibit the enzyme α-amylase and α-glucosidase. […] Therefore, C5f was selected for further investigation of its ability to lower blood sugar levels in an in vivo study. This investigation sought to reveal the effect of C5f on blood glucose levels in mice with diabetes caused by Streptozotocin (STZ). This compound has a significant hypoglycemic effect in STZ-diabetic mice, similar to the effect reported in the control group (mice that were not treated), as shown in Figure 3. The mice were divided into three groups: group I: negative control mice without any treatment; Group II: positive control mice with STZ treatment only; and Group III: mice treated with STZ and then with our compound C5f.
The investigations conducted on mice adhered strictly to the protocols established by the Association for Assessment and Accreditation of Laboratory Animal Care International. The Institutional Review Board of the Animal House and Use Committee at An-Najah National University granted full ethical approval for the study (approval number: Med. September. 2022/2A). […]
The experiment entailed inducing diabetes intraperitoneally by administering streptozotocin (STZ) (i.p.). […] To determine the development of diabetes, the mice’s fasting blood glucose levels were evaluated 4 days following the injection of STZ. […]

Compound	viability at 24 h, 100 µM [1]	lower cytotoxic activity compared to the positive control 5-FU (LX-2 cells)	blood glucose level after five doses of C5f ([2]; 10 mg/kg i.p. daily for 5 days, 10 mg/kg)	blood glucose level before C5f treatment ([2]; baseline after STZ induction)
O=C(c1ccccc1)n1c(Cn2c3ccccc3c3ccccc32)n[nH]c1=S [C5o, (3-((9H-Carbazol-9-yl)methyl)-5-thioxo-1,5-dihydro-4H-1,2,4-triazol-4-yl)(phenyl)methanone]	36.5%	3 fold		
S=c1[nH]nc(Cn2c3ccccc3c3ccccc32)n1CCc1ccccc1 [C5s, 5-((9H-Carbazol-9-yl)methyl)-4-phenethyl-2,4-dihydro-3H-1,2,4-triazole-3-thione]	37.8%	3 fold		
O=c1[nH]cc(F)c(=O)[nH]1 [5-Fu, 5-Fluorouracil, reference compound]	13.4%			
S=c1[nH]nc(Cn2c3ccccc3c3ccccc32)n1C1CC2CCC1C2 (stereo not drawn) [C5r, 5-((9H-Carbazol-9-yl)methyl)-4-(bicyclo[2.2.1]heptan-2-yl)-2,4-dihydro-3H-1,2,4-triazole-3-thione]	64.5%			
S=c1[nH]nc(Cn2c3ccccc3c3ccccc32)n1-c1ccc(Br)cc1 [C5g, 5-((9H-Carbazol-9-yl)methyl)-4-(4-bromophenyl)-2,4-dihydro-3H-1,2,4-triazole-3-thione]	65.3 to 85.3%			
COc1ccc(-n2c(Cn3c4ccccc4c4ccccc43)n[nH]c2=S)cc1 [C5f, 5-((9H-Carbazol-9-yl)methyl)-4-(4-methoxyphenyl)-2,4-dihydro-3H-1,2,4-triazole-3-thione]	63.6%		216.15 mg/dL and 216.15 ± 3.45 mg/dL	290.54 mg/dL and 290.54 ± 2.15 mg/dL
S=c1[nH]nc(Cn2c3ccccc3c3ccccc32)n1C1CCCCC1 [C5m, 5-((9H-Carbazol-9-yl)methyl)-4-cyclohexyl-2,4-dihydro-3H-1,2,4-triazole-3-thione]	65.3 to 85.3%			
S=c1[nH]nc(Cn2c3ccccc3c3ccccc32)n1-c1ccc(Cl)cc1 [C5h, 5-((9H-Carbazol-9-yl)methyl)-4-(4-chlorophenyl)-2,4-dihydro-3H-1,2,4-triazole-3-thione]	65.3 to 85.3%			
